# US12612441B2, “Polypeptide and therapeutic uses thereof” (Vitalixir (Beijing) Co., Ltd, priority 2019, dated 2026)
# Test system: db/db mice
# Experiment: Blood glucose lowering in db/db mice (Example 12)
# Type: in vivo
# Conditions: db/db male mice, 35 nmol/kg subcutaneous single dose, 0-10 hours, AUC, vs PBS control; FIG. 9
# Description: The feeding conditions of db/db mice were the same as described in Example 7. The db/db male mice (GemPharmatech, 7 weeks old) had one-week to acclimate to the environmental conditions of the test facility. Three days before the test (−3 day˜−1 day) baseline blood glucose and body weight were recorded. The mice were randomly grouped based on three-day blood glucose and body weight, with 6 mice in each group. Mice were injected subcutaneously with PBS (5 ml/kg, control group) or peptide compounds 42, 115, 178 (35 nmol/kg) at 10:00 in the morning. Blood was collected at 0 hour before drug administration, and 1.5, 4, 7, and 10 hours after administration, and blood glucose was measured using a OneTouch glucose meter (Johnson & Johnson) and test strips. By using time as the abscissa and the blood glucose value at different time points as the ordinate blood glucose curves were drawn, and the areas under the curve (AUC) were calculated to compare the hypoglycemic effects and duration of action of the peptide compounds.
row,Substance,blood glucose
1,"Y(aib)EGTFTSDLSI(aib)LEKEAVRLFIEWLLAG-NH2 (YXEGTFTSDLSIXLEKEAVRLFIEWLLAG; Aib; C-terminal amide; MOD_RES (2)..(2) X=aminoisobutyric aicd; MOD_RES (13)..(13) X=aminoisobutyric aicd; MOD_RES (29)..(29) AMIDATION, C-termianl amidation) [Compound 42]",significantly reduced blood glucose
2,"Y(aib)EGTFTSDLSI(aib)LEKEAVRLFIEWLLAGGPS-NH2 (YXEGTFTSDLSIXLEKEAVRLFIEWLLAGGPS; Aib; C-terminal amide; MOD_RES (2)..(2) X=aminoisobutyric aicd; MOD_RES (13)..(13) X=aminoisobutyric aicd; MOD_RES (32)..(32) AMIDATION, C-termianl amidation) [Compound 178]",significantly reduced blood glucose
3,"Y(aib)EGTFTSDLSI(aib)LEKEAVRLFIEWLLAGGPSSGA-NH2 (YXEGTFTSDLSIXLEKEAVRLFIEWLLAGGPSSGA; Aib; C-terminal amide; MOD_RES (2)..(2) X=aminoisobutyric aicd; MOD_RES (13)..(13) X=aminoisobutyric aicd; MOD_RES (35)..(35) AMIDATION, C-termianl amidation) [Compound 115]",significantly reduced blood glucose
